Measurements from patent publication US10787452B2 (Vertex Pharmaceuticals Incorporated, priority 2012, dated 2020).

These compounds were tested on HCT116 colorectal cancer cells (assay: Cisplatin sensitization assay (96 h cell viability MTS)). Settings: 96 h MTS, compound plus Cisplatin.
Format: cell-based
Method in brief: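 HCT116 cells were co-treated with compound and cisplatin, each in 2-fold serial dilutions from a 10 μM top final concentration, as a full matrix. After 96 h at 37 °C, 5% CO2, viability was read by MTS following a 1 h incubation with reagent.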
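Note: compound concentration needed to lower the Cisplatin-alone IC50 by a set fold.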

| SMILES | Cisplatin Sensitization Assay |
| --- | --- |
| Cc1nc(O[C@@H]2CCN(C)C2)ccc1-c1ccncc1NC(=O)c1c(N)nn2cc(F)cnc12 [I-C-41, (R)-2-amino-6-fluoro-N-(2-methyl-6-((1-methylpyrrolidin-3-yl)oxy)-[3,4′-bipyridin]-3′-yl)pyrazolo[1,5-a]pyrimidine-3-carboxamide] | +++ (Compounds with a Cisplatin sensitization value of <0.02 μM are marked with “+++.”) |
| Nc1nn2cc(F)cnc2c1C(=O)Nc1cncc(F)c1N1CCN(C(=O)C2COC2)CC1 [I-N-278, 2-amino-6-fluoro-N-(5-fluoro-4-(4-(oxetane-3-carbonyl)piperazin-1-yl)pyridin-3-yl)pyrazolo[1,5-a]pyrimidine-3-carboxamide] | +++ (Compounds with a Cisplatin sensitization value of <0.02 μM are marked with “+++.”) |
| CN1CC[C@@H](OC2CCN(c3c(F)cncc3NC(=O)c3c(N)nn4cc(F)cnc34)CC2)C1 [I-N-132, (R)-2-amino-6-fluoro-N-(5-fluoro-4-(4-((1-methylpyrrolidin-3-yl)oxy)piperidin-1-yl)pyridin-3-yl)pyrazolo[1,5-a]pyrimidine-3-carboxamide] | +++ (Compounds with a Cisplatin sensitization value of <0.02 μM are marked with “+++.”) |
| CC1(O)CCN(c2ccncc2NC(=O)c2c(N)nn3cc(Cl)cnc23)CC1 [I-N-66, 2-amino-6-chloro-N-(4-(4-hydroxy-4-methylpiperidin-1-yl)pyridin-3-yl)pyrazolo[1,5-a]pyrimidine-3-carboxamide] | +++ (Compounds with a Cisplatin sensitization value of <0.02 μM are marked with “+++.”) |
| Cc1nc(F)ccc1-c1ccncc1NC(=O)c1c(N)nn2cc(F)cnc12 [I-C-34, 2-amino-6-fluoro-N-(6-fluoro-2-methyl-[3,4′-bipyridin]-3′-yl)pyrazolo[1,5-a]pyrimidine-3-carboxamide] | +++ (Compounds with a Cisplatin sensitization value of <0.02 μM are marked with “+++.”) |
| CN(C)[C@@H]1CCN(C(=O)C2CCN(c3c(F)cncc3NC(=O)c3c(N)nn4cc(F)cnc34)CC2)C1 [I-G-11, (R)-2-amino-N-(4-(4-(3-(dimethylamino)pyrrolidine-1-carbonyl)piperidin-1-yl)-5-fluoropyridin-3-yl)-6-fluoropyrazolo[1,5-a]pyrimidine-3-carboxamide] | +++ (Compounds with a Cisplatin sensitization value of <0.02 μM are marked with “+++.”) |
| CN1C2CCC1CN(C(=O)C1CCN(c3c(F)cncc3NC(=O)c3c(N)nn4cc(F)cnc34)CC1)C2 [I-G-52, 2-amino-6-fluoro-N-(5-fluoro-4-(4-(8-methyl-3,8-diazabicyclo[3.2.1]octane-3-carbonyl)piperidin-1-yl)pyridin-3-yl)pyrazolo[1,5-a]pyrimidine-3-carboxamide] | +++ (Compounds with a Cisplatin sensitization value of <0.02 μM are marked with “+++.”) |
| Nc1nn2cc(F)cnc2c1C(=O)Nc1cnccc1Oc1cccnc1 [I-O-7, 2-amino-6-fluoro-N-(4-(pyridin-3-yloxy)pyridin-3-yl)pyrazolo[1,5-a]pyrimidine-3-carboxamide] | ++ (Compounds with a Cisplatin sensitization value >0.02 μM but <0.2 μM are marked with “++.”) |
| COCCOc1ccncc1NC(=O)c1c(N)nn2cc(CC#N)cnc12 [I-O-29, 2-amino-6-(cyanomethyl)-N-(4-(2-methoxyethoxy)pyridin-3-yl)pyrazolo[1,5-a]pyrimidine-3-carboxamide] | +++ (Compounds with a Cisplatin sensitization value of <0.02 μM are marked with “+++.”) |
| Nc1nn2cc(Cl)cnc2c1C(=O)Nc1cnccc1N1CCn2ccnc2C1 [I-N-44, 2-amino-6-chloro-N-(4-(5,6-dihydroimidazo[1,2-a]pyrazin-7(8H)-yl)pyridin-3-yl)pyrazolo[1,5-a]pyrimidine-3-carboxamide] | ++ (Compounds with a Cisplatin sensitization value >0.02 μM but <0.2 μM are marked with “++.”) |
